In publication PMC4410974 (Clinical cancer research : an official journal of the …, 2012):

Assay: Adverse events
Format: in vivo, human
[1] = three studies collectively, 138 subjects

CO[C@H]1C[C@@H]2CC[C@@H](C)[C@@](O)(O2)C(=O)C(=O)N2CCCC[C@H]2C(=O)O[C@H]([C@H](C)C[C@@H]2CC[C@@H](O)[C@H](OC)C2)CC(=O)[C@H](C)/C=C(\C)[C@@H](O)[C@@H](OC)C(=O)[C@H](C)C[C@H](C)/C=C/C=C/C=C/1C [Sirolimus]
1(1): Infection (adverse event) (Sirolimus Alone 20mg) | Infection, grade 3 or 4 (Sirolimus Alone 20mg) | Anorexia (adverse event) (Sirolimus Alone 30mg) | Anorexia, grade 3 or 4 (Sirolimus Alone 30mg) | Infection (adverse event) (Sirolimus Alone 30mg) | Infection, grade 3 or 4 (Sirolimus Alone 30mg) | Infection (adverse event) (Sirolimus Alone 30mg (24h)) | Infection, grade 3 or 4 (Sirolimus Alone 30mg (24h)) | Hypoglycemia (adverse event) (Total (n=138)) | Hypoglycemia, grade 3 or 4 (Total (n=138)) | Nail Changes (adverse event) (Total (n=138)) | Nail Changes, grade 3 or 4 (Total (n=138))
2(2): Pneumonia (adverse event) (Sirolimus Alone 20mg) | Pneumonia, grade 3 or 4 (Sirolimus Alone 20mg)
52%: Hyperglycemia, subjects with toxicity [1]
3: Anemia (adverse event) (Sirolimus Alone 10mg) | Lymphopenia (adverse event) (Sirolimus Alone 10mg) | Nausea (adverse event) (Sirolimus Alone 10mg) | Anemia (adverse event) (Sirolimus Alone 30mg) | Hyperlipidemia (adverse event) (Sirolimus Alone 30mg) | Lymphopenia (adverse event) (Sirolimus Alone 30mg) | Diarrhea (adverse event) (Sirolimus Alone 45mg (24h)) | Anorexia (adverse event) (Sirolimus Alone 60mg) | Lymphopenia (adverse event) (Sirolimus Alone 60mg) | Diarrhea, grade 3 or 4 (Total (n=138)) | Fatigue, grade 3 or 4 (Total (n=138)) | Hyperlipidemia, grade 3 or 4 (Total (n=138)) | Myalgia (adverse event) (Total (n=138))
1: Altered taste (adverse event) (Sirolimus Alone 10mg) | Anorexia (adverse event) (Sirolimus Alone 10mg) | Diarrhea (adverse event) (Sirolimus Alone 10mg) | Elevated Transaminases (adverse event) (Sirolimus Alone 10mg) | Infection (adverse event) (Sirolimus Alone 10mg) | Mucocutaneous dryness (adverse event) (Sirolimus Alone 10mg) | Paresthesia (adverse event) (Sirolimus Alone 10mg) | Rash (adverse event) (Sirolimus Alone 10mg) | Altered taste (adverse event) (Sirolimus Alone 20mg) | Anorexia (adverse event) (Sirolimus Alone 20mg) | Decreased platelets (adverse event) (Sirolimus Alone 20mg) | Dyspnea (adverse event) (Sirolimus Alone 20mg) | Lymphopenia, grade 3 or 4 (Sirolimus Alone 20mg) | Mucositis (adverse event) (Sirolimus Alone 20mg) | Decreased platelets (adverse event) (Sirolimus Alone 30mg) | Fatigue (adverse event) (Sirolimus Alone 30mg) | Hyperlipidemia, grade 3 or 4 (Sirolimus Alone 30mg) | Hypertension (adverse event) (Sirolimus Alone 30mg) | Lymphopenia, grade 3 or 4 (Sirolimus Alone 30mg) | Mucocutaneous dryness (adverse event) (Sirolimus Alone 30mg) | Nausea, grade 3 or 4 (Sirolimus Alone 30mg) | Pneumonia (adverse event) (Sirolimus Alone 30mg) | Rash (adverse event) (Sirolimus Alone 30mg) | Decreased platelets (adverse event) (Sirolimus Alone 30mg (4h)) | Elevated Transaminases (adverse event) (Sirolimus Alone 30mg (4h)) | Fatigue (adverse event) (Sirolimus Alone 30mg (4h)) | Hyperglycemia (adverse event) (Sirolimus Alone 30mg (4h)) | Mucositis (adverse event) (Sirolimus Alone 30mg (24h)) | Nausea (adverse event) (Sirolimus Alone 30mg (24h)) | Rash (adverse event) (Sirolimus Alone 30mg (24h)) | Anorexia (adverse event) (Sirolimus Alone 45mg (24h)) | Diarrhea, grade 3 or 4 (Sirolimus Alone 45mg (24h)) | Hyperglycemia (adverse event) (Sirolimus Alone 45mg (24h)) | Mood Alteration (adverse event) (Sirolimus Alone 45mg (24h)) | Decreased platelets (adverse event) (Sirolimus Alone 60mg) | Diarrhea, grade 3 or 4 (Sirolimus Alone 60mg) | Elevated Transaminases (adverse event) (Sirolimus Alone 60mg) | Fever (adverse event) (Sirolimus Alone 60mg) | Hyperlipidemia, grade 3 or 4 (Sirolimus Alone 60mg) | Infection (adverse event) (Sirolimus Alone 60mg) | Rash (adverse event) (Sirolimus Alone 60mg) | Anorexia, grade 3 or 4 (Total (n=138)) | Dyspnea, grade 3 or 4 (Total (n=138)) | Edema, grade 3 or 4 (Total (n=138)) | Elevated Creatinine (adverse event) (Total (n=138)) | Epistaxis (adverse event) (Total (n=138)) | Pleural Effusion (adverse event) (Total (n=138)) | Vomiting, grade 3 or 4 (Total (n=138))
58: Diarrhea (adverse event) (Total (n=138))
15: Weight Loss (adverse event) (Total (n=138))
6: Hyperglycemia (adverse event) (Sirolimus Alone 20mg) | Hyperglycemia (adverse event) (Sirolimus Alone 30mg) | Diarrhea (adverse event) (Sirolimus Alone 60mg) | Hyperlipidemia (adverse event) (Sirolimus Alone 60mg) | Nausea (adverse event) (Sirolimus Alone 60mg) | Dyspnea (adverse event) (Total (n=138)) | Mucocutaneous dryness (adverse event) (Total (n=138)) | Pruritis (adverse event) (Total (n=138))
2: Fatigue (adverse event) (Sirolimus Alone 10mg) | Hyperlipidemia (adverse event) (Sirolimus Alone 10mg) | Lymphopenia, grade 3 or 4 (Sirolimus Alone 10mg) | Mucositis (adverse event) (Sirolimus Alone 10mg) | Vomiting (adverse event) (Sirolimus Alone 10mg) | Hypoxia (adverse event) (Sirolimus Alone 20mg) | Nausea (adverse event) (Sirolimus Alone 20mg) | Diarrhea (adverse event) (Sirolimus Alone 30mg) | Elevated Transaminases (adverse event) (Sirolimus Alone 30mg) | Fever (adverse event) (Sirolimus Alone 30mg) | Vomiting (adverse event) (Sirolimus Alone 30mg) | Leukopenia (adverse event) (Sirolimus Alone 30mg (4h)) | Nausea (adverse event) (Sirolimus Alone 30mg (4h)) | Vomiting (adverse event) (Sirolimus Alone 30mg (4h)) | Diarrhea (adverse event) (Sirolimus Alone 30mg (24h)) | Nausea (adverse event) (Sirolimus Alone 45mg (24h)) | Elevated Transaminases, grade 3 or 4 (Total (n=138)) | Hand & Foot Syndrome (adverse event) (Total (n=138)) | Hypertension (adverse event) (Total (n=138)) | Hypocalcemia (adverse event) (Total (n=138)) | Hypoxia (adverse event) (Total (n=138)) | Mood Alteration (adverse event) (Total (n=138)) | Nausea, grade 3 or 4 (Total (n=138)) | Paresthesia (adverse event) (Total (n=138))
14: Infection (adverse event) (Total (n=138)) | Lymphopenia, grade 3 or 4 (Total (n=138)) | Rash (adverse event) (Total (n=138))
59: Hyperlipidemia (adverse event) (Total (n=138))
17: Leukopenia (adverse event) (Total (n=138)) | Mucositis (adverse event) (Total (n=138))
22: Decreased platelets (adverse event) (Total (n=138))
33: Vomiting (adverse event) (Total (n=138))
72: Hyperglycemia (adverse event) (Total (n=138))
46: Anemia (adverse event) (Total (n=138)) | Fatigue (adverse event) (Total (n=138))
7: Hyperglycemia, grade 3 or 4 (Total (n=138)) | Neutropenia (adverse event) (Total (n=138))
56: Lymphopenia (adverse event) (Total (n=138))
32: Anorexia (adverse event) (Total (n=138))
43%: Hyperlipidemia, subjects with toxicity [1]
48: Nausea (adverse event) (Total (n=138))
5: Anemia (adverse event) (Sirolimus Alone 20mg) | Diarrhea (adverse event) (Sirolimus Alone 20mg) | Fatigue (adverse event) (Sirolimus Alone 60mg) | Vomiting (adverse event) (Sirolimus Alone 60mg) | Altered taste (adverse event) (Total (n=138)) | Anemia, grade 3 or 4 (Total (n=138)) | Edema (adverse event) (Total (n=138)) | Pneumonia (adverse event) (Total (n=138))
4: Elevated Transaminases (adverse event) (Sirolimus Alone 20mg) | Fatigue (adverse event) (Sirolimus Alone 20mg) | Hyperlipidemia (adverse event) (Sirolimus Alone 20mg) | Lymphopenia (adverse event) (Sirolimus Alone 20mg) | Nausea (adverse event) (Sirolimus Alone 30mg) | Diarrhea (adverse event) (Sirolimus Alone 30mg (4h)) | Vomiting (adverse event) (Sirolimus Alone 45mg (24h)) | Hyperglycemia (adverse event) (Sirolimus Alone 60mg) | Weight Loss (adverse event) (Sirolimus Alone 60mg) | Fever (adverse event) (Total (n=138)) | Infection, grade 3 or 4 (Total (n=138)) | Pneumonia, grade 3 or 4 (Total (n=138))
41%: Lymphopenia, subjects with toxicity [1]
23: Elevated Transaminases (adverse event) (Total (n=138))
